Laboratory results as given in the supplement of paper PMC10307832.

Tests used:
Test in all cases: relative viability (nuclei count vs DMSO), 5 days (fraction); higher = more cells survive
Ibrutinib + Decitabine = compound: C=CC(=O)N1CCC[C@@H](n2nc(-c3ccc(Oc4ccccc4)cc3)c3c(N)ncnc32)C1 [Ibrutinib] + Nc1ncn([C@H]2C[C@H](O)[C@@H](CO)O2)c(=O)n1 [Decitabine] (partner 2 µM)
In short: (§1)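 Relative viability was taken as the ratio of nuclei in treated wells to nuclei in vehicle wells. Lung cancer cell lines in 1536-well plates received compounds by pin tool one day after seeding, either one drug alone or a fixed anchor-drug dose plus five library-drug doses (not always all listed) in √10 steps. Nuclei were counted on 4× images after 5 days of treatment, and values are medians of duplicate plates.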

BMX-IN-1 + AZD7762 = compound: C=CC(=O)Nc1cc(-n2c(=O)ccc3cnc4ccc(-c5ccc(NS(C)(=O)=O)cc5)cc4c32)ccc1C [BMX-IN-1] + NC(=O)Nc1cc(-c2cccc(F)c2)sc1C(=O)N[C@H]1CCCNC1 [AZD7762] (partner 0.2 µM)
In short: as §1

Ibrutinib + OSI-027 = compound: C=CC(=O)N1CCC[C@@H](n2nc(-c3ccc(Oc4ccccc4)cc3)c3c(N)ncnc32)C1 [Ibrutinib] + COc1cccc2cc(-c3nc([C@H]4CC[C@H](C(=O)O)CC4)n4ncnc(N)c34)[nH]c12 [OSI-027] (partner 0.5 µM)
In short: as §1

BMX-IN-1 + Navitoclax = compound: C=CC(=O)Nc1cc(-n2c(=O)ccc3cnc4ccc(-c5ccc(NS(C)(=O)=O)cc5)cc4c32)ccc1C [BMX-IN-1] + CC1(C)CCC(c2ccc(Cl)cc2)=C(CN2CCN(c3ccc(C(=O)NS(=O)(=O)c4ccc(N[C@H](CCN5CCOCC5)CSc5ccccc5)c(S(=O)(=O)C(F)(F)F)c4)cc3)CC2)C1 [Navitoclax] (partner 0.5 µM)
In short: as §1

Cell Line	relative viability (Ibrutinib + Decitabine; first compound 0.005 µM)	relative viability (Ibrutinib + Decitabine; first compound 0.01581 µM)	relative viability (Ibrutinib + Decitabine; first compound 0.05 µM)	relative viability (Ibrutinib + Decitabine; first compound 0.1581 µM)	relative viability (Ibrutinib + Decitabine; first compound 0.5 µM)	relative viability (BMX-IN-1 + AZD7762; first compound 0.2 µM)	relative viability (BMX-IN-1 + AZD7762; first compound 0.6325 µM)	relative viability (BMX-IN-1 + AZD7762; first compound 2 µM)	relative viability (Ibrutinib + OSI-027; first compound 0.005 µM)	relative viability (Ibrutinib + OSI-027; first compound 0.01581 µM)	relative viability (Ibrutinib + OSI-027; first compound 0.05 µM)	relative viability (Ibrutinib + OSI-027; first compound 0.1581 µM)	relative viability (Ibrutinib + OSI-027; first compound 0.5 µM)	relative viability (BMX-IN-1 + Navitoclax; first compound 0.2 µM)	relative viability (BMX-IN-1 + Navitoclax; first compound 0.6325 µM)	relative viability (BMX-IN-1 + Navitoclax; first compound 2 µM)	relative viability (BMX-IN-1 + AZD7762; first compound 0.02 µM)	relative viability (BMX-IN-1 + Navitoclax; first compound 0.02 µM)
LOU-NH91	0.786	0.745	0.762	0.807	0.648	0.806	0.865	0.753	0.586	0.617	0.555	0.659	0.448	0.695	0.773	0.683		
LU99A	0.857	0.796	0.947	0.937	0.874	0.416	0.415	0.288	0.245	0.254	0.323	0.32	0.288	0.885	0.857	0.833	0.393	0.897
LXF-289	0.357	0.295	0.381	0.38	0.342	1.18	1.22	1.27	0.762	0.722	0.771	0.702	0.695	1.06	1.03	1.01	1.25	0.954
NCI-H23	0.313	0.343	0.339	0.298	0.339	0.272	0.18	0.25	0.331	0.562	0.681	0.57	0.607	0.85	0.858	0.738	0.211	0.979
NCI-H322M	0.662	0.637	0.664	0.634	0.505	0.559	0.714	0.485	0.482	0.564	0.513	0.507	0.488	1.18	1.24	1.16	0.532	0.848
NCI-H441	0.255	0.241	0.231	0.211	0.25	1.03	0.997	1.39	0.579	0.664	0.597	0.677	0.707	0.85	1.08	0.755	1.12	0.466
NCI-H460	0.541	0.419	0.503	0.497	0.551	0.566	0.768	0.735	0.731	0.53	0.626	0.566	0.823		1.32	1.25	0.725	
NCI-H596	1.12	1.1	1.88	0.936	0.942	1.36	1.23	1.04		0.777	0.625	0.675	0.526	1.08	1.07	0.816	1.07	0.906
NCI-H647	0.341	0.331	0.411	0.244	0.409	0.583	0.71	0.62		0.542	0.671	0.841	0.812	1.23	1.03	1.16	0.492	1.52
NCI-H727	0.617	1.04	0.806	0.506	0.804	0.585	0.635	0.541	0.506	0.591	0.674		0.577	0.443	0.471	0.426	0.574	0.333
NCI-H838	0.552	0.466	0.497	0.476	0.451	1.01	0.956	1.01	0.36	0.405	0.387	0.399	0.481	1.33	1.21	1.18	1.06	1.39
NCI-H1355		0.355	0.367	0.318	0.363	0.85	0.838	0.755	0.29	0.388	0.382	0.347	0.403	0.969	0.94	0.99	0.872	1
NCI-H1395	0.777	0.688	0.811	0.697	0.75	0.407	0.434	0.376	0.602	0.617	0.612	0.5	0.781	1.09	1.07	1.14	0.4	0.972
NCI-H1437	0.59	0.559	0.507	0.609	0.53	1.26	1.11	1.11	0.718	0.846	0.941	0.913	0.878	1.33	1.07	1.18	1.26	1.3
NCI-H1651	0.426	0.693	0.56	0.465	0.53	0.503	0.527	0.422	0.624	0.663	0.792	0.685	0.768	1.2	1.02	1.04	0.557	1.24
NCI-H1666	0.569	0.782	0.666	0.663	0.632	0.886	0.901	0.871	0.89	0.747	0.737	0.847	0.621	0.979	0.938	0.92	0.804	1.09
NCI-H1734	0.548	0.511	0.541	0.455	0.47	0.623	0.542	0.669	0.448	0.528	0.611	0.665	0.564	0.907	0.953	0.949	0.683	1.01

Cell Line	relative viability (Ibrutinib + Decitabine; first compound 0.005 µM)	relative viability (Ibrutinib + Decitabine; first compound 0.01581 µM)	relative viability (Ibrutinib + Decitabine; first compound 0.05 µM)	relative viability (Ibrutinib + Decitabine; first compound 0.1581 µM)	relative viability (Ibrutinib + Decitabine; first compound 0.5 µM)	relative viability (BMX-IN-1 + AZD7762; first compound 0.2 µM)	relative viability (BMX-IN-1 + AZD7762; first compound 0.6325 µM)	relative viability (BMX-IN-1 + AZD7762; first compound 2 µM)	relative viability (Ibrutinib + OSI-027; first compound 0.005 µM)	relative viability (Ibrutinib + OSI-027; first compound 0.01581 µM)	relative viability (Ibrutinib + OSI-027; first compound 0.05 µM)	relative viability (Ibrutinib + OSI-027; first compound 0.1581 µM)	relative viability (Ibrutinib + OSI-027; first compound 0.5 µM)	relative viability (BMX-IN-1 + Navitoclax; first compound 0.2 µM)	relative viability (BMX-IN-1 + Navitoclax; first compound 0.6325 µM)	relative viability (BMX-IN-1 + Navitoclax; first compound 2 µM)	relative viability (BMX-IN-1 + AZD7762; first compound 0.02 µM)	relative viability (BMX-IN-1 + Navitoclax; first compound 0.02 µM)
NCI-H1755	0.739	0.716	0.704	0.713	0.7	0.491	0.453	0.466	0.636	0.552	0.79	0.81	0.777	1.05	1.07	1.03	0.543	1.01
NCI-H1792		0.584	0.558	0.591	0.441	0.79	0.866	0.885		0.712	0.677		0.808	0.632	0.49	0.724	0.896	0.559
NCI-H1793	0.478	0.485	0.432	0.502	0.366	0.661	0.594	0.588		0.238	0.243	0.207	0.219	0.363	0.483	0.38	0.513	0.454
NCI-H1915	0.269	0.272	0.275	0.272	0.255	0.786	0.806	0.675	0.557	0.619	0.606	0.482	0.682	0.793	0.764	0.777	0.774	0.808
NCI-H1944	0.426	0.363	0.413	0.433	0.372	0.661	0.52	0.578	0.331	0.33	0.329	0.339	0.331	1.11	1.02	1.08	0.479	0.992
NCI-H1975	0.414	0.354	0.379	0.373	0.177	0.742	0.895	0.673	0.681	0.624	0.498	0.692	0.357	1.19	1.34	1	0.797	1.34
NCI-H1993	0.571	0.637	0.579	0.554	0.441	0.926	0.706	0.724	0.574	0.566	0.584	0.552	0.692	0.875		0.958	0.907	1.07
NCI-H2085	0.57	0.56	0.588		0.568	1.07	0.986	0.996	0.502	0.627	0.663	0.556	0.562	1.31	1.2	1.07	1.08	1.23
NCI-H2087	0.238	0.279	0.261		0.291	1.44	1.3	1.42	0.407	0.504	1.08		0.542	1.18	1.01	1.08	1.67	1.03
NCI-H2126	0.537	0.565	0.613	0.598	0.502	1.06	1.16	1.04		0.59	0.537	0.537	0.632	0.945	0.876	0.907	1.03	0.836
NCI-H2170	0.438	0.47	0.389	0.457	0.173	0.98	1.03	0.928	0.48	0.587	0.459	0.822	0.272	0.634	0.689	0.623	0.945	0.742
NCI-H2347	0.65	0.609	0.658	0.575	0.535	0.833	0.712	0.945		0.383	0.374	0.302	0.57	0.887	0.785	0.871	0.787	0.978
NCI-H2405	0.622	0.715			0.682	0.941	0.762	0.805	0.54	0.627	0.63	0.662	0.638	0.846	0.915	0.836	0.831	0.957
NCI-H3122	0.52	0.381	0.471	0.424	0.431	1.16	1.11	1.07	0.895	0.921	0.955	0.671	1.32	1.06	1.02	1.05	1.22	1.1
PC-3 [JPC-3]	0.707	0.762	0.707	0.837	0.542	0.925	0.918	0.847	0.635	0.7	0.619	0.84	0.584	0.823	0.746	0.871	0.886	0.728
PC-14	0.241	0.202	0.217	0.168	0.22	0.459	0.408	0.312	0.71	0.689	0.641	0.907	0.554	1.29	1.01	1.06	0.404	1.02
RERF-LC-KJ	0.599	0.654	0.561	0.693	0.728	0.957	1.3	1.19	0.516	0.441	0.497	0.579	0.489	0.994	1.3	0.749	1.1	0.821
